Measurements: the supplement of paper PMC10307832

What was measured:
Experiment in all cases: relative viability (nuclei count vs DMSO), 5 days (fraction); higher = more cells survive
[1] = compound: CCn1c(-c2nonc2N)nc2c(C#CC(C)(C)O)ncc(OC[C@H]3CCCNC3)c21 + COc1cc2c(Oc3ccc(NC(=O)C4(C(=O)Nc5ccc(F)cc5)CC4)cc3F)ccnc2cc1OCCCN1CCOCC1 [Foretinib] (partner 0.25 µM)
Method in brief: (§1)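 Cells from lung cancer lines were seeded into 1536-well plates and, one day later, dosed by pin tool. Treatments were either a single drug or a fixed dose of an anchor drug with five library-drug doses (not always all listed) in √10 steps. After 5 days, nuclei were stained in a one-step fixation (final 0.05% Triton X-100, 1% formaldehyde, 1 ug/ml Hoechst) and counted on 4× images, and relative viability is the treated-to-vehicle nuclei ratio, as the median of duplicate plates.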

[2] = compound: CCOC1=CC=CC=C1N=NC2=C(NN(C2=O)C3=NC(=CS3)C4=CC=CC=C4)C [BAM7] + O=C(CCCCCCC(=O)Nc1ccccc1)NO [Vorinostat] (partner 1 µM)
Method in brief: as §1

[3] = compound: CCn1c(-c2nonc2N)nc2c(C#CC(C)(C)O)ncc(OC[C@H]3CCCNC3)c21 + C[C@@H](Oc1cc(-c2cnn(C3CCNCC3)c2)cnc1N)c1c(Cl)ccc(F)c1Cl [Crizotinib] (partner 1 µM)
Method in brief: as §1

[4] = compound: CCOC1=CC=CC=C1N=NC2=C(NN(C2=O)C3=NC(=CS3)C4=CC=CC=C4)C [BAM7] + NC(=O)Nc1cc(-c2cccc(F)c2)sc1C(=O)N[C@H]1CCCNC1 [AZD7762] (partner 0.2 µM)
Method in brief: as §1

Cell Line	relative viability ([1]; first compound 0.01 µM)	relative viability ([1]; first compound 0.03162 µM)	relative viability ([1]; first compound 0.1 µM)	relative viability ([1]; first compound 0.3162 µM)	relative viability ([1]; first compound 1 µM)	relative viability ([2]; first compound 0.5 µM)	relative viability ([2]; first compound 5 µM)	relative viability ([2]; first compound 15.81 µM)	relative viability ([2]; first compound 50 µM)	relative viability ([3]; first compound 0.01 µM)	relative viability ([3]; first compound 0.03162 µM)	relative viability ([3]; first compound 0.1 µM)	relative viability ([3]; first compound 0.3162 µM)	relative viability ([3]; first compound 1 µM)	relative viability ([4]; first compound 0.5 µM)	relative viability ([4]; first compound 5 µM)	relative viability ([4]; first compound 15.81 µM)	relative viability ([4]; first compound 50 µM)
HCC-827	1.02	1.09	1.01	1.06	1.02	0.806	1	1.01	0.789	0.884	0.917	0.879	0.865	0.882	0.199	0.201	0.284	0.182
HOP-62	1.08	1.13	1.08	0.985	1.16	0.682	0.661	0.591	0.694	0.769	0.978	0.929	0.874	0.888	0.648	0.917	0.733	0.342
LC-2-ad	0.94	0.906	0.923	0.909	1.01	0.695	0.737	0.707	0.656	0.452	0.483	0.448	0.493	0.479	0.916	0.832	0.832	0.805
LCLC-97TM1	1.03	0.91	1.01	0.877	0.874	0.941	0.878	–	0.763	–	0.435	0.331	0.333	0.367	0.222	0.172	0.29	0.252
LCLC-103H	0.792	0.981	0.749	0.736	0.847	0.781	0.804	0.764	0.781	0.964	1.07	1.05	1.11	1.02	0.825	0.88	0.725	0.781
LK-2	0.994	1.15	–	–	1.09	0.341	0.346	0.343	0.353	0.247	0.181	0.215	0.24	0.232	0.407	0.472	0.515	0.404
LOU-NH91	0.929	0.962	0.964	0.861	0.907	0.899	0.936	0.917	0.903	0.758	0.747	0.742	0.543	0.754	0.796	0.794	0.75	0.793
LU99A	0.797	0.797	0.814	0.776	0.899	0.512	0.54	0.488	0.553	0.567	0.556	0.571	0.494	0.491	0.371	0.438	0.35	0.293
LXF-289	0.983	1.05	0.979	0.952	0.955	0.82	0.92	0.84	0.7	0.856	0.815	0.797	0.758	0.828	1.12	1.17	1.13	1.04
NCI-H23	0.971	1.15	1.06	0.918	0.916	0.559	0.674	0.629	0.792	0.477	0.572	0.444	0.48	0.417	0.165	0.35	0.287	0.255
NCI-H322M	0.823	0.881	0.879	0.816	0.911	0.884	0.868	1.05	0.913	0.969	0.981	0.9	0.811	0.914	0.554	0.467	0.544	0.583
NCI-H358	0.646	0.977	0.657	0.73	0.663	–	0.644	0.528	0.667	0.485	0.604	0.51	0.669	0.611	0.62	0.519	0.5	0.55
NCI-H441	1.08	0.967	0.836	1.16	0.875	1.1	0.607	0.762	0.773	0.676	0.621	0.708	0.586	0.728	1.35	1.46	0.888	1.12
NCI-H460	0.949	1.11	0.979	0.978	1.11	0.657	0.634	0.611	0.647	0.895	1.07	0.814	0.786	0.884	0.595	0.751	0.494	0.571
NCI-H2342	1.1	1.19	1.04	1.07	1.09	0.72	0.736	0.709	0.8	–	–	–	–	–	0.53	0.61	0.431	0.388
SW 900	0.92	0.887	0.875	0.798	0.768	–	0.461	–	0.589	–	–	–	–	–	–	0.592	–	0.691
